# Reference: PMC9029893 (International Journal of Molecular Sciences, 2022)
# How the values were obtained:
# [1] = test system: HUVEC cells; test: Glucose utilization assay (2-NBDG uptake); format: cell-based, human; conditions: 24 h, then insulin and 2-NBDG
# Description: HUVEC were seeded at a density of 20,000 cells per well in 48-well plates, and were cultured in standard conditions for 24 h (medium EGM-2; volume 0.2 mL). Following this, compounds 1–8 were added at concentrations of 0.1 and 0.3 mM, and the HUVECs were incubated for another 24 h. Cells treated with ᴅ-glucose (final concentration in a sample 0.1 mM) were used as positive controls. On the following day, the cells were rinsed with PBS (Biomed Lublin, Lublin, Poland) and cultured for two hours in glucose-free DMEM medium supplemented with 1% BSA (bovine serum albumin, Sigma, St. Louis, MO, USA). Then, the cells were co-treated with insulin (final concentration 0.0001 mM) for 30 min. Afterwards, the medium was discarded and the cells were treated with 2-NBDG (final concentration 0.05 mM) for 30 min, followed by removal of the solutions of each well. The cells were washed twice with 100 µL PBS, and lysed using 1% Triton X-100 solution in PBS. The fluorescence was recorded using a microplate reader (Biotek, Instruments, Winooski, VT, USA) at 480/530 nm.
# The concentration of intracellular 2-NBDG was calculated using a calibration curve obtained using 2-NBDG at concentrations ranging from 0.0001 to 0.025 mM in lysis buffer. The results are presented as mean ± SD, n = 4–6. The coefficient of variation for the assay was calculated (CV = 2.2%, n = 8).
# [2] = biological target: antithrombin III (AT) (Homo sapiens, UniProt P01008); test: Activity of antithrombin III (AT); format: biochemical
# Description: The activity of AT in human plasma was estimated spectrophotometrically using a diagnostic laboratory method. […] In the control samples, 10 μL of distilled water and methanol (1:1) was used. The reaction was initiated by the addition of a chromogenic substrate dissolved in water for injection; as a result, p-nitroaniline was released proportionally to the level of AT. The evaluation of AT level was performed on the basis of a calibration curve performed on calibrator diluted in the range 1:30–1:120 (λ = 405 nm) by the coagulometer program (CoagChrom-3003 Bio Ksel, Grudziadz, Poland). The coefficient of variability for the method (CV) was 2.69%, and the reference range was 80%–130%.
# [3] = test system: clot formation and fibrinolysis in human citrate plasma; test: Clot formation and fibrinolysis test (CL-test); format: biochemical
# Description: The effects of the […] on overall hemostasis potential by means of clot formation and fibrinolysis test (CL-test) were further tested based on the continuous measurement of the changes in optical transmittance over time, as described by Kostka et al. and Sikora et al.. These experiments were conducted using 470 µL of three-fold diluted human citrate plasma, 10 µL of the tested compounds, and 10 µL t-PA (final concentration in a sample 220 ng/mL). The clot formation was triggered by thrombin (10 µL, final concentration 0.5 IU/mL). The clot formation and lysis curves were determined at a wavelength of 405 nm with a spectrophotometer (Cecil CE 2021; London, UK) with circulating thermostated water (37 °C) and a Model 300 Electronic Stirrer (Rank Brothers Ltd., Cambridge, UK). The experiments were conducted in multiplicate (n = 5–7), and the results are presented as mean ± SD.
# The received graphs were analyzed using dedicated software to determine the kinetic parameters of clot formation, stabilization, and fibrinolysis. The following parameters of clot formation were determined: Tt—thrombin time (s), Fmax—maximum clotting (%T), Tf—plasma clotting time (s), Fvo—initial plasma clotting velocity (%T/min), Sr—area under the clot formation curve (%Txmin). The parameters of the clot stabilization phase comprised Tc—clot stabilization time (s), Sc—area under the curve of stable clot formation (%Txmin). The parameters of fibrinolysis comprised Lmax—maximum lysis (%T), Tl—fibrinolysis time (s), Lvo—initial clot fibrinolysis velocity (%T/min), Sf—area under the fibrinolysis curve (%Txmin). Additionally, the overall potential of clot formation and fibrinolysis (CLAUC, (%Txmin)) and total time of the process of clot formation and fibrinolysis (T, (s)) were also estimated.
# antithrombin III (AT), sequence (P01008 33-464): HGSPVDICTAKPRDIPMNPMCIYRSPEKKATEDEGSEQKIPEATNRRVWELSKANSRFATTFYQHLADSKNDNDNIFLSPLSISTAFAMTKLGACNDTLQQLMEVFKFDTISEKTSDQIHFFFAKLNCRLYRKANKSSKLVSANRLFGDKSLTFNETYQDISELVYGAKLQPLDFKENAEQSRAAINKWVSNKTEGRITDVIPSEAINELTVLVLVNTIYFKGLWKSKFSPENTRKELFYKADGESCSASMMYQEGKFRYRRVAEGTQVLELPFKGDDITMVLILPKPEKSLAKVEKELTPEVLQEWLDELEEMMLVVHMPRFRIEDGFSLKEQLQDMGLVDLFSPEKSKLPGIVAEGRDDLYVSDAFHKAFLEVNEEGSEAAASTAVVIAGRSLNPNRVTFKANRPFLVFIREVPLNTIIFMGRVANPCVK
compound,measurement,setting,value
CCCCS(=O)(=O)NC(N)=NC(=N)N(C)C [Compound 1],Glucose uptake (intracellular 2-NBDG),[1]; 0.1 mM,0.0134 ± 0.0004 mM
same,Glucose uptake (intracellular 2-NBDG),[1]; 0.3 mM,0.0142 ± 0.0007 mM
same,activity of AT III,[2]; 0.06 mM,110.25 ± 8.34%
same,activity of AT III,[2]; 0.3 mM,115.25 ± 6.18%
same,activity of AT III,[2]; 0.6 mM,120.00 ± 2.71%
same,activity of AT III,[2]; 1.5 mM,123.00 ± 5.2%
same,Fmax—maximum clotting,[3]; 0.06 mM,73.71 ± 5.89 %T
same,Fvo—initial plasma clotting velocity,[3]; 0.06 mM,230.57 ± 34.38 %T/min
same,Lmax—maximum lysis,[3]; 0.06 mM,70.23 ± 10.26 %T
same,Lvo—initial clot fibrinolysis velocity,[3]; 0.06 mM,21.40 ± 6.16 %T/min
same,Sc—area under the curve of a stable clot formation,[3]; 0.06 mM,389.25 ± 160.80 %T x min
same,Sf—area under the clot formation curve,[3]; 0.06 mM,50.97 ± 7.65 %T x min
same,Sl (area under the fibrinolysis curve),[3]; 0.06 mM,193.67 ± 107.75 %T x min
same,S—overall potential of clot formation and fibrinolysis (CLAUC),[3]; 0.06 mM,633.89 ± 269.28 %T x min
same,Tc—clot stabilization time,[3]; 0.06 mM,324.86 ± 130.79 s
same,Tf—plasma clotting time,[3]; 0.06 mM,58.61 ± 9.61 s
same,Tl—fibrinolysis time,[3]; 0.06 mM,253.57 ± 104.13 s
same,Tt—thrombin time,[3]; 0.06 mM,18.97 ± 3.08 s
same,T—total time of the process of clot formation and fibrinolysis,[3]; 0.06 mM,656.01 ± 236.60 s
same,Fmax—maximum clotting,[3]; 0.3 mM,71.97 ± 6.78 %T
same,Fvo—initial plasma clotting velocity,[3]; 0.3 mM,227.86 ± 37.81 %T/min
same,Lmax—maximum lysis,[3]; 0.3 mM,69.09 ± 10.62 %T
same,Lvo—initial clot fibrinolysis velocity,[3]; 0.3 mM,18.53 ± 7.15 %T/min
same,Sc—area under the curve of a stable clot formation,[3]; 0.3 mM,407.13 ± 154.90 %T x min
same,Sf—area under the clot formation curve,[3]; 0.3 mM,52.45 ± 10.08 %T x min
same,Sl (area under the fibrinolysis curve),[3]; 0.3 mM,186.37 ± 104.97 %T x min
same,S—overall potential of clot formation and fibrinolysis (CLAUC),[3]; 0.3 mM,645.95 ± 264.51 %T x min
same,Tc—clot stabilization time,[3]; 0.3 mM,347.71 ± 124.84 s
same,Tf—plasma clotting time,[3]; 0.3 mM,61.36 ± 11.85 s
same,Tl—fibrinolysis time,[3]; 0.3 mM,260.57 ± 95.60 s
same,Tt—thrombin time,[3]; 0.3 mM,16.81 ± 3.05 s
same,T—total time of the process of clot formation and fibrinolysis,[3]; 0.3 mM,686.46 ± 226.50 s
same,Fmax—maximum clotting,[3]; 0.6 mM,70.77 ± 5.62 %T
same,Fvo—initial plasma clotting velocity,[3]; 0.6 mM,217.71 ± 37.42 %T/min
same,Lmax—maximum lysis,[3]; 0.6 mM,69.47 ± 6.67 %T
same,Lvo—initial clot fibrinolysis velocity,[3]; 0.6 mM,18.64 ± 4.38 %T/min
same,Sc—area under the curve of a stable clot formation,[3]; 0.6 mM,388.20 ± 131.19 %T x min
same,Sf—area under the clot formation curve,[3]; 0.6 mM,53.53 ± 5.26 %T x min
same,Sl (area under the fibrinolysis curve),[3]; 0.6 mM,178.97 ± 84.17 %T x min
same,S—overall potential of clot formation and fibrinolysis (CLAUC),[3]; 0.6 mM,620.70 ± 216.54 %T x min
same,Tc—clot stabilization time,[3]; 0.6 mM,338.00 ± 114.76 s
same,Tf—plasma clotting time,[3]; 0.6 mM,63.63 ± 6.31 s
same,Tl—fibrinolysis time,[3]; 0.6 mM,267.71 ± 99.31 s
same,Tt—thrombin time,[3]; 0.6 mM,16.75 ± 4.87 s
same,T—total time of the process of clot formation and fibrinolysis,[3]; 0.6 mM,686.09 ± 216.29 s
same,Fmax—maximum clotting,[3]; 1.5 mM,70.21 ± 3.38 %T
same,Fvo—initial plasma clotting velocity,[3]; 1.5 mM,193.57 ± 47.31 %T/min
same,Lmax—maximum lysis,[3]; 1.5 mM,66.90 ± 8.86 %T
same,Lvo—initial clot fibrinolysis velocity,[3]; 1.5 mM,20.23 ± 6.46 %T/min
same,Sc—area under the curve of a stable clot formation,[3]; 1.5 mM,389.89 ± 172.66 %T x min
same,Sf—area under the clot formation curve,[3]; 1.5 mM,52.36 ± 6.58 %T x min
same,Sl (area under the fibrinolysis curve),[3]; 1.5 mM,159.20 ± 87.92 %T x min
same,S—overall potential of clot formation and fibrinolysis (CLAUC),[3]; 1.5 mM,602.52 ± 263.77 %T x min
same,Tc—clot stabilization time,[3]; 1.5 mM,344.29 ± 149.70 s
same,Tf—plasma clotting time,[3]; 1.5 mM,64.21 ± 9.03 s
same,Tl—fibrinolysis time,[3]; 1.5 mM,236.57 ± 80.20 s
same,Tt—thrombin time,[3]; 1.5 mM,21.60 ± 6.05 s
same,T—total time of the process of clot formation and fibrinolysis,[3]; 1.5 mM,666.67 ± 234.05 s
CCCCCCCCS(=O)(=O)NC(N)=NC(=N)N(C)C [Compound 2],Glucose uptake (intracellular 2-NBDG),[1]; 0.1 mM,0.0139 ± 0.0003 mM
same,Glucose uptake (intracellular 2-NBDG),[1]; 0.3 mM,0.0146 ± 0.001 mM
same,activity of AT III,[2]; 0.06 mM,121.00 ± 4.90%
same,activity of AT III,[2]; 0.3 mM,127.75 ± 10.44%
same,activity of AT III,[2]; 0.6 mM,125.75 ± 10.87%
same,activity of AT III,[2]; 1.5 mM,129.00 ± 11.46%
same,Fmax—maximum clotting,[3]; 0.06 mM,66.77 ± 5.68 %T
same,Fvo—initial plasma clotting velocity,[3]; 0.06 mM,203.43 ± 22.00 %T/min
same,Lmax—maximum lysis,[3]; 0.06 mM,67.40 ± 5.38 %T
same,Lvo—initial clot fibrinolysis velocity,[3]; 0.06 mM,22.29 ± 4.30 %T/min
same,Sc—area under the curve of a stable clot formation,[3]; 0.06 mM,323.20 ± 94.05 %T x min
same,Sf—area under the clot formation curve,[3]; 0.06 mM,44.40 ± 9.07 %T x min
same,Sl (area under the fibrinolysis curve),[3]; 0.06 mM,148.45 ± 47.41 %T x min
same,S—overall potential of clot formation and fibrinolysis (CLAUC),[3]; 0.06 mM,516.05 ± 146.55 %T x min
same,Tc—clot stabilization time,[3]; 0.06 mM,296.57 ± 72.31 s
same,Tf—plasma clotting time,[3]; 0.06 mM,56.56 ± 8.57 s
same,Tl—fibrinolysis time,[3]; 0.06 mM,240.14 ± 65.11 s
same,Tt—thrombin time,[3]; 0.06 mM,16.86 ± 4.24 s
same,T—total time of the process of clot formation and fibrinolysis,[3]; 0.06 mM,610.13 ± 145.50 s
same,Fmax—maximum clotting,[3]; 0.3 mM,68.99 ± 5.55 %T
same,Fvo—initial plasma clotting velocity,[3]; 0.3 mM,194.00 ± 48.64 %T/min
same,Lmax—maximum lysis,[3]; 0.3 mM,69.49 ± 5.34 %T
same,Lvo—initial clot fibrinolysis velocity,[3]; 0.3 mM,19.83 ± 6.57 %T/min
same,Sc—area under the curve of a stable clot formation,[3]; 0.3 mM,344.01 ± 74.34 %T x min
same,Sf—area under the clot formation curve,[3]; 0.3 mM,46.00 ± 9.83 %T x min
same,Sl (area under the fibrinolysis curve),[3]; 0.3 mM,153.63 ± 43.80 %T x min
same,S—overall potential of clot formation and fibrinolysis (CLAUC),[3]; 0.3 mM,543.64 ± 122.37 %T x min
same,Tc—clot stabilization time,[3]; 0.3 mM,309.14 ± 68.74 s
same,Tf—plasma clotting time,[3]; 0.3 mM,59.24 ± 16.26 s
same,Tl—fibrinolysis time,[3]; 0.3 mM,252.00 ± 73.00 s
same,Tt—thrombin time,[3]; 0.3 mM,17.54 ± 5.79 s
same,T—total time of the process of clot formation and fibrinolysis,[3]; 0.3 mM,637.93 ± 155.22 s
same,Fmax—maximum clotting,[3]; 0.6 mM,67.40 ± 9.57 %T
same,Fvo—initial plasma clotting velocity,[3]; 0.6 mM,214.14 ± 50.85 %T/min
same,Lmax—maximum lysis,[3]; 0.6 mM,68.19 ± 9.82 %T
same,Lvo—initial clot fibrinolysis velocity,[3]; 0.6 mM,20.37 ± 7.03 %T/min
same,Sc—area under the curve of a stable clot formation,[3]; 0.6 mM,344.82 ± 65.62 %T x min
same,Sf—area under the clot formation curve,[3]; 0.6 mM,44.34 ± 10.50 %T x min
same,Sl (area under the fibrinolysis curve),[3]; 0.6 mM,143.77 ± 40.07 %T x min
same,S—overall potential of clot formation and fibrinolysis (CLAUC),[3]; 0.6 mM,532.93 ± 111.10 %T x min
same,Tc—clot stabilization time,[3]; 0.6 mM,319.00 ± 63.63 s
same,Tf—plasma clotting time,[3]; 0.6 mM,55.80 ± 11.60 s
same,Tl—fibrinolysis time,[3]; 0.6 mM,247.43 ± 74.21 s
same,Tt—thrombin time,[3]; 0.6 mM,17.57 ± 3.74 s
same,T—total time of the process of clot formation and fibrinolysis,[3]; 0.6 mM,639.80 ± 148.09 s
same,Fmax—maximum clotting,[3]; 1.5 mM,61.57 ± 7.24 %T
same,Fvo—initial plasma clotting velocity,[3]; 1.5 mM,177.43 ± 34.91 %T/min
same,Lmax—maximum lysis,[3]; 1.5 mM,62.14 ± 6.63 %T
same,Lvo—initial clot fibrinolysis velocity,[3]; 1.5 mM,20.07 ± 6.59 %T/min
same,Sc—area under the curve of a stable clot formation,[3]; 1.5 mM,346.35 ± 92.32 %T x min
same,Sf—area under the clot formation curve,[3]; 1.5 mM,44.31 ± 12.08 %T x min
same,Sl (area under the fibrinolysis curve),[3]; 1.5 mM,133.78 ± 47.19 %T x min
same,S—overall potential of clot formation and fibrinolysis (CLAUC),[3]; 1.5 mM,524.43 ± 146.77 %T x min
same,Tc—clot stabilization time,[3]; 1.5 mM,351.43 ± 96.53 s
same,Tf—plasma clotting time,[3]; 1.5 mM,61.21 ± 14.65 s
same,Tl—fibrinolysis time,[3]; 1.5 mM,249.14 ± 80.94 s
same,Tt—thrombin time,[3]; 1.5 mM,24.37 ± 7.41 s
same,T—total time of the process of clot formation and fibrinolysis,[3]; 1.5 mM,686.16 ± 190.86 s
